Usually IC50 stands for the point on the concentration scale where inhibition reaches its midpoint.

Consider 42 molecules from US20240217968A1, “PHARMACEUTICAL COMPOUND” (DUKE STREET BIO LIMITED, priority 2021, published 2024).

This test addresses T1, recombinant human Flag-tagged PARP7 (amino acids 456-657) (Homo sapiens, UniProt Q7Z3E1).
T1 construct: recombinant human Flag-tagged PARP7 (amino acids 456-657)
T1 sequence (Q7Z3E1 456-657): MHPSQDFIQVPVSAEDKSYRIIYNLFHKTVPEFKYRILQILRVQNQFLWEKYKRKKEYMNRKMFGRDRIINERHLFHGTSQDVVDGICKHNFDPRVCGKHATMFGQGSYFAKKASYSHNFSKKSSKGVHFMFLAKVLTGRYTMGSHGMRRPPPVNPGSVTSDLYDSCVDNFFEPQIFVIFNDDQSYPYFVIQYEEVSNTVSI
The test can be described thus: PARP7 biochemical DELFIA assay (auto-MARylation). To be noted: DELFIA readout, IC50 class. An outline of the steps: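 Readout is DELFIA time-resolved Eu fluorescence (Ex337 nm, Em620 nm) of biotin-ADP-ribose on immobilised Flag-tagged PARP7 456-657. Enzyme (12.5-37.5 nM as added) sat 30 min with compound before biotin-NAD+ (15 μM solution, pH 7.5 HEPES buffer) started 2-3 h room-temperature self-modification, stopped with excess NAD+.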

SMILES strings stand for the structures.

In the case of `CC(COCC(=O)NC1CCN(c2ncc(C(F)(F)F)cn2)CC1)n1cc(C(F)(F)F)c2c(=O)[nH]ncc21` (single isomer, unassigned) [Compound 459], the 50% inhibitory concentration (IC50) is at most 100 nM.

`CC(COCC(=O)N(C)C1CCN(c2ncc(C(F)(F)F)cn2)CC1)n1nc(C(F)(F)F)c2c(=O)[nH]ncc21` (single isomer, unassigned) [Compound 460, N-methyl-2-(2-(4-oxo-3-(trifluoromethyl)-4,5-dihydro-1H-pyrazolo[3,4-d]pyridazin-1-yl)propoxy)-N-(1-(5-(trifluoromethyl)pyrimidin-2-yl)piperidin-4-yl) acetamide]: the IC50 was at most 100 nM.

As for `CC(COCC(=O)N(C)C1CCN(c2ncc(C(F)(F)F)cn2)CC1)n1nc(C(F)(F)F)c2c(=O)[nH]ncc21` (single isomer, unassigned) [Compound 461, N-methyl-2-(2-(4-oxo-3-(trifluoromethyl)-4,5-dihydro-1H-pyrazolo[3,4-d]pyridazin-1-yl)propoxy)-N-(1-(5-(trifluoromethyl)pyrimidin-2-yl)piperidin-4-yl) acetamide], the IC50 is at most 100 nM.

In the case of `CC(COCC(=O)N(C)C1CCN(c2ncc(C(F)(F)F)cn2)CC1)n1cc(C(F)(F)F)c2c(=O)[nH]ncc21` (single isomer, unassigned) [Compound 462], the IC50 was at most 100 nM.

For the molecule `CC(COCCC(=O)N1CCN(c2ncc(C#N)cn2)CC1)n1cc(C(F)(F)F)c2c(=O)[nH]ncc21` (single isomer, unassigned) [Compound 464], the IC50 was at most 100 nM.

`CC(CCOCC(=O)N1CCN(c2ccc(C#N)cn2)CC1)n1nc(C(F)(F)F)c2c(=O)[nH]ncc21` (single isomer, unassigned) [Compound 466]: the IC50 was at most 100 nM.

Turning to `CC(CCOCC(=O)N1CCN(c2ccc(C#N)cn2)CC1)n1nc(C(F)(F)F)c2c(=O)[nH]ncc21` (single isomer, unassigned) [Compound 467], the IC50 was at most 100 nM.

As to `CC(COCCC(=O)N1CCN(c2ncc(F)cn2)CC1)n1cc(C(F)(F)F)c2c(=O)[nH]ncc21` (single isomer, unassigned) [Compound 468], the IC50 is at most 100 nM.

As for `CC(COCCC(=O)N1CCN(c2ncc(F)cn2)CC1)n1cc(C(F)(F)F)c2c(=O)[nH]ncc21` (single isomer, unassigned) [Compound 469], the IC50 was at most 100 nM.

Turning to `CC(COCCC(=O)N1CCN(c2nnc(C(F)(F)F)o2)CC1)n1nc(C(F)(F)F)c2c(=O)[nH]ncc21` (single isomer, unassigned) [Compound 472], the IC50 was at most 100 nM.

Take `CC(COCCC(=O)N1CCN(c2nnc(C(F)(F)F)o2)CC1)n1nc(C(F)(F)F)c2c(=O)[nH]ncc21` (single isomer, unassigned) [Compound 473]: the IC50 is 100 to 1000 nM.

As to `[2H]C(C)(COCCC(=O)N1CCN(c2ncc(C(F)(F)F)cn2)CC1)n1cc(C(F)(F)F)c2c(=O)[nH]ncc21` (single isomer, unassigned) [Compound 476, 1-(1-(3-oxo-3-(4-(5-(trifluoromethyl)pyrimidin-2-yl)piperazin-1-yl)propoxy)propan-2-yl-2-d)-3-(trifluoromethyl)-1,5-dihydro-4H-pyrrolo[2,3-d]pyridazin-4-one], the IC50 is at most 100 nM.

In the case of `[2H]C(C)(COCCC(=O)N1CCN(c2ncc(C(F)(F)F)cn2)CC1)n1cc(C(F)(F)F)c2c(=O)[nH]ncc21` (single isomer, unassigned) [Compound 477, 1-(1-(3-oxo-3-(4-(5-(trifluoromethyl)pyrimidin-2-yl)piperazin-1-yl)propoxy)propan-2-yl-2-d)-3-(trifluoromethyl)-1,5-dihydro-4H-pyrrolo[2,3-d]pyridazin-4-one], the IC50 was at most 100 nM.

Turning to `CC(COCC(=O)NC1CCN(c2ncc(C(F)(F)F)cn2)CC1)n1nc(C(F)(F)F)c2c(=O)[nH]ncc21` (single isomer, unassigned) [Compound 479, 2-(2-(4-oxo-3-(trifluoromethyl)-4,5-dihydro-1H-pyrazolo[3,4-d]pyridazin-1-yl)propoxy)-N-(1-(5-(trifluoromethyl)pyrimidin-2-yl)piperidin-4-yl) acetamide], the IC50 is at most 100 nM.

For the molecule `CC(COCC(=O)NC1CCN(c2ncc(C(F)(F)F)cn2)CC1)n1nc(C(F)(F)F)c2c(=O)[nH]ncc21` (single isomer, unassigned) [Compound 480, 2-(2-(4-oxo-3-(trifluoromethyl)-4,5-dihydro-1H-pyrazolo[3,4-d]pyridazin-1-yl)propoxy)-N-(1-(5-(trifluoromethyl)pyrimidin-2-yl)piperidin-4-yl) acetamide], the IC50 was at most 100 nM.

On to `CC(COCCC(=O)N1CCN(c2ncc(C(C)(F)F)cn2)CC1)n1cc(C(F)(F)F)c2c(=O)[nH]ncc21` (single isomer, unassigned) [Compound 482], for which the 50% inhibitory concentration (IC50) is at most 100 nM.

Turning to `CC(COCCC(=O)N1CCN(c2ccc(C(C)(F)F)cn2)CC1)n1cc(C(F)(F)F)c2c(=O)[nH]ncc21` (single isomer, unassigned) [Compound 484], the IC50 is at most 100 nM.

As for `CC(COCCC(=O)N1CCN(c2ncc(C(C)(F)F)cn2)CC1)n1nc(C(F)(F)F)c2c(=O)[nH]ncc21` (single isomer, unassigned) [Compound 485], the IC50 is at most 100 nM.

Consider `CC(COCCC(=O)N1CCN(c2ncc(C(C)(F)F)cn2)CC1)n1nc(C(F)(F)F)c2c(=O)[nH]ncc21` (single isomer, unassigned) [Compound 486], for which the IC50 was at most 100 nM.

Consider `CC(COCCC(=O)N1CCN(c2ncc(C#N)cn2)CC1)n1nc(C(F)F)c2c(=O)[nH]ncc21` (single isomer, unassigned) [Compound 490], for which the IC50 is at most 100 nM.

As for `CC(COCCC(=O)N1CCN(c2ncc(C#N)cn2)CC1)n1nc(C(F)F)c2c(=O)[nH]ncc21` (single isomer, unassigned) [Compound 491], the IC50 is at most 100 nM.

For `CC(CCOCC(=O)N1CCN(c2ccc(C#N)cn2)CC1)n1cc(C(F)(F)F)c2c(=O)[nH]ncc21` (single isomer, unassigned) [Compound 494], the IC50 is at most 100 nM.

In the case of `CC(CCOCC(=O)N1CCN(c2ccc(C#N)cn2)CC1)n1cc(C(F)(F)F)c2c(=O)[nH]ncc21` (single isomer, unassigned) [Compound 495], the IC50 was 100 to 1000 nM.

Take `CC(CCOCC(=O)N1CCN(c2ncc(C#N)cn2)CC1)n1nc(C(F)(F)F)c2c(=O)[nH]ncc21` (single isomer, unassigned) [Compound 496]: the IC50 was at most 100 nM.

Regarding `CC(CCOCC(=O)N1CCN(c2ncc(C#N)cn2)CC1)n1nc(C(F)(F)F)c2c(=O)[nH]ncc21` (single isomer, unassigned) [Compound 497], the IC50 was at most 100 nM.

For the molecule `CC(COCCC(=O)N1CCN(c2ncc(C(C)(C)C)cn2)CC1)n1cc(C(F)(F)F)c2c(=O)[nH]ncc21` (single isomer, unassigned) [Compound 498], the IC50 was at most 100 nM.

As to `CC(COCCC(=O)N1CCN(c2ncc(C(C)(C)C)cn2)CC1)n1cc(C(F)(F)F)c2c(=O)[nH]ncc21` (single isomer, unassigned) [Compound 499], the IC50 is at most 100 nM.

With `CC(COCCC(=O)N1CCN(c2ncc(C(C)(C)C)cn2)CC1)n1nc(C(F)(F)F)c2c(=O)[nH]ncc21` (single isomer, unassigned) [Compound 500], the IC50 is at most 100 nM.

For the molecule `CC(COCCC(=O)N1CCN(c2ncc(C(C)(C)C)cn2)CC1)n1nc(C(F)(F)F)c2c(=O)[nH]ncc21` (single isomer, unassigned) [Compound 501], the IC50 is at most 100 nM.

For the molecule `N#Cc1ccc(N2CCN(C(=O)c3cccc(Cc4cccc5c(=O)[nH]ncc45)c3)CC2)nc1` [Compound 1, 6-(4-(3-((1-oxo-1,2-dihydrophthalazin-5-yl)methyl)benzoyl)piperazin-1-yl)nicotinonitrile], the IC50 was at most 100 nM.

`O=C(c1cccc(Cc2cccc3c(=O)[nH]ncc23)c1)N1CCN(C(=O)C2CC2)CC1` [Compound 2]: the IC50 was 1000 to 10000 nM.

Regarding `O=C(COCCOc1cccc2c(=O)[nH]ncc12)N1CCN(c2ncc(C(F)(F)F)cn2)CC1` [Compound 3], the IC50 lay in the range of 100 to 1000 nM.

Consider `O=C(CCOCCc1cccc2c(=O)[nH]ncc12)N1CCN(c2ncc(C(F)(F)F)cn2)CC1` [Compound 4], for which the IC50 is at most 100 nM.

`N#Cc1ccc(N2CCN(C(=O)c3cccc(CN4CCc5c4cn[nH]c5=O)c3)CC2)nc1` [Compound 5]: the IC50 lay in the range of 1000 to 10000 nM.

Turning to `O=C(CCOCCN1CCc2c1cn[nH]c2=O)N1CCN(c2ncc(C(F)(F)F)cn2)CC1` [Compound 6], the half-inhibitory concentration (IC50) is 100 to 1000 nM.

Regarding `N#Cc1ccc(N2CCN(C(=O)c3cccc(CN4CCCc5c4cn[nH]c5=O)c3)CC2)nc1` [Compound 7], the IC50 was 100 to 1000 nM.

Take `O=C(CCOCCN1CCCc2c1cn[nH]c2=O)N1CCN(c2ncc(C(F)(F)F)cn2)CC1` [Compound 8]: the IC50 was at most 100 nM.

As to `N#Cc1ccc(N2CCN(C(=O)c3cccc(Cn4ccc5c(=O)[nH]ncc54)c3)CC2)nc1` [Compound 9], the IC50 fell in the range of 100 to 1000 nM.

In the case of `O=C(CCOCCn1ccc2c(=O)[nH]ncc21)N1CCN(c2ncc(C(F)(F)F)cn2)CC1` [Compound 10, 1-(2-(3-oxo-3-(4-(5-(trifluoromethyl)pyrimidin-2-yl)piperazin-1-yl)propoxy)ethyl)-1,5-dihydro-4H-pyrrolo[2,3-d]pyridazin-4-one], the IC50 is at most 100 nM.

Turning to `N#Cc1ccc(N2CCN(C(=O)c3cccc(CN4CCOc5c4cn[nH]c5=O)c3)CC2)nc1` [Compound 11], the IC50 was 1000 to 10000 nM.

`O=C(CCOCCN1CCOc2c1cn[nH]c2=O)N1CCN(c2ncc(C(F)(F)F)cn2)CC1` [Compound 12]: the IC50 is 100 to 1000 nM.

As to `O=C(COCCOc1cccc2c(=O)[nH]cnc12)N1CCN(c2ncc(C(F)(F)F)cn2)CC1` [Compound 15], the IC50 lay within 100 to 1000 nM.
